According to patent US20250304594A1, “METHYL (R)-2-(FLUOROMETHYL)-5-OXO-4-PHENYL-4,5,6,7-TETRAHYDRO-1H-CYCLOPENTA[B]PYRIDINE-3-CARBOXYLATE AND METHYL (R)-2-(FLUOROMETHYL)-5-OXO-4-PHENYL-1,4,5,7-TETRAHYDROFURO[3,4-B]PYRIDINE-3-CARBOXYLATE AS Cav1,2 ACTIVATORS” (Novartis AG, priority 2020, published 2025):

Biological target: T1, human CaV1.2 (Homo sapiens, UniProt Q13936)
T1 construct: expressed in transfected cells; host or cells: Flp-In 293 T-Rex (HEK293), monoclonal CaV1.2-HEK293(AUX) clone 2-19B; doxycycline-induced auxiliary subunits
T1 sequence (Q13936 1-2138 isoform Q13936-23): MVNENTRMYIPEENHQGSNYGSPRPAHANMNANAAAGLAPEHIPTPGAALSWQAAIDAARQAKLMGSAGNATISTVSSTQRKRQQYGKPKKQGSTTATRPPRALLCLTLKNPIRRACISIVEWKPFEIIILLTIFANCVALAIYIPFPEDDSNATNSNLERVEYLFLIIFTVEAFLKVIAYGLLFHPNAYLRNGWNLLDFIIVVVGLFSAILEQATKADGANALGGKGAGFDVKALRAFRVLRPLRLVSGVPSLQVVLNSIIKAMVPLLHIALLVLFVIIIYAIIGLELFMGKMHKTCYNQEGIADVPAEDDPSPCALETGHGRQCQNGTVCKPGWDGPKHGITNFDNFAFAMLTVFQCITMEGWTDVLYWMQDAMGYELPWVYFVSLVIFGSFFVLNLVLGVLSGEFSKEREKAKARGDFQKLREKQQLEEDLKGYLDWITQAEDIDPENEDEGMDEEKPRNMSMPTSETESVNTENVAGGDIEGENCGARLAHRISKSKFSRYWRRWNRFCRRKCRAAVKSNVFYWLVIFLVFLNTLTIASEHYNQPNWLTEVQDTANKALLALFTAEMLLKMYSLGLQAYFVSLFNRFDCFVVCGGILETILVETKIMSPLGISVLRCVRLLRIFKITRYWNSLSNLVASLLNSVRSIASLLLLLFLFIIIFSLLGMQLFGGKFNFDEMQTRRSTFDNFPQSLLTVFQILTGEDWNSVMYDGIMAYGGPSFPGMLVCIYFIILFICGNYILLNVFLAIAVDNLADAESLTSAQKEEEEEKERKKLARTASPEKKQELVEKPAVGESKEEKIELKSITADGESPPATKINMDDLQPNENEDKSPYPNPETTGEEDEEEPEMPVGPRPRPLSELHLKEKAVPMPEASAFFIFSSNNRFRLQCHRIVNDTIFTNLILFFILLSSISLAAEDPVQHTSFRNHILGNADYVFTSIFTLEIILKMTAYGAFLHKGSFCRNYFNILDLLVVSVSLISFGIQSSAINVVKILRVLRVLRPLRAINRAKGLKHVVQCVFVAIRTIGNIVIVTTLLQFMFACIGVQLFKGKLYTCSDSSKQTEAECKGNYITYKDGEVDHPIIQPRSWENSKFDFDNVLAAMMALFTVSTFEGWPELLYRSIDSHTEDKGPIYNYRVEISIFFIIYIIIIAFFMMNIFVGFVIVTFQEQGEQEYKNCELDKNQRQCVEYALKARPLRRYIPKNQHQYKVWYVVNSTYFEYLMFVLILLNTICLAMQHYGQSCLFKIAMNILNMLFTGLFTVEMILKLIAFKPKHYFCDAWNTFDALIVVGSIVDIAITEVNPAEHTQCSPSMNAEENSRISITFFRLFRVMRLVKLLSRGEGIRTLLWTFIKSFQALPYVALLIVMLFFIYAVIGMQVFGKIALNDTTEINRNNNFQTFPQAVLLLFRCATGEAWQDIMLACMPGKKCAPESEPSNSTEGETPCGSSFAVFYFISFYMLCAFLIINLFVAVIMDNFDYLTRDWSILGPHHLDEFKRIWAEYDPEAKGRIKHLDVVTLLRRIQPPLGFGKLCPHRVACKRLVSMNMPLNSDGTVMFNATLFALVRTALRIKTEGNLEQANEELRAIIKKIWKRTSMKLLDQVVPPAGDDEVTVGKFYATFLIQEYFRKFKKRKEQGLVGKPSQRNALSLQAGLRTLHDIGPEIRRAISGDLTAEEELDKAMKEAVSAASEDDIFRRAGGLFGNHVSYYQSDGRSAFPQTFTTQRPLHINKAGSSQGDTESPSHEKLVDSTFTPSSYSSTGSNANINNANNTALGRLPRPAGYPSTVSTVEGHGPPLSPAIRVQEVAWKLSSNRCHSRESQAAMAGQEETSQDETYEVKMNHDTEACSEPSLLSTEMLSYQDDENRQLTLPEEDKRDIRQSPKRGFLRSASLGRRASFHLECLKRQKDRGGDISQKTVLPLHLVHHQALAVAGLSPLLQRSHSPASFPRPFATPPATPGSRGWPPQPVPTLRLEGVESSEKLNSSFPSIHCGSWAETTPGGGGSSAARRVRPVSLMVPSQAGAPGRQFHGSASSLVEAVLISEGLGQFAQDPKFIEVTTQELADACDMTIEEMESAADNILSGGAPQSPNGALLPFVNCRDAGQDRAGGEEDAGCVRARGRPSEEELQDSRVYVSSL
T1 sequence (Q9NY47 19-1001 partner limits assumed): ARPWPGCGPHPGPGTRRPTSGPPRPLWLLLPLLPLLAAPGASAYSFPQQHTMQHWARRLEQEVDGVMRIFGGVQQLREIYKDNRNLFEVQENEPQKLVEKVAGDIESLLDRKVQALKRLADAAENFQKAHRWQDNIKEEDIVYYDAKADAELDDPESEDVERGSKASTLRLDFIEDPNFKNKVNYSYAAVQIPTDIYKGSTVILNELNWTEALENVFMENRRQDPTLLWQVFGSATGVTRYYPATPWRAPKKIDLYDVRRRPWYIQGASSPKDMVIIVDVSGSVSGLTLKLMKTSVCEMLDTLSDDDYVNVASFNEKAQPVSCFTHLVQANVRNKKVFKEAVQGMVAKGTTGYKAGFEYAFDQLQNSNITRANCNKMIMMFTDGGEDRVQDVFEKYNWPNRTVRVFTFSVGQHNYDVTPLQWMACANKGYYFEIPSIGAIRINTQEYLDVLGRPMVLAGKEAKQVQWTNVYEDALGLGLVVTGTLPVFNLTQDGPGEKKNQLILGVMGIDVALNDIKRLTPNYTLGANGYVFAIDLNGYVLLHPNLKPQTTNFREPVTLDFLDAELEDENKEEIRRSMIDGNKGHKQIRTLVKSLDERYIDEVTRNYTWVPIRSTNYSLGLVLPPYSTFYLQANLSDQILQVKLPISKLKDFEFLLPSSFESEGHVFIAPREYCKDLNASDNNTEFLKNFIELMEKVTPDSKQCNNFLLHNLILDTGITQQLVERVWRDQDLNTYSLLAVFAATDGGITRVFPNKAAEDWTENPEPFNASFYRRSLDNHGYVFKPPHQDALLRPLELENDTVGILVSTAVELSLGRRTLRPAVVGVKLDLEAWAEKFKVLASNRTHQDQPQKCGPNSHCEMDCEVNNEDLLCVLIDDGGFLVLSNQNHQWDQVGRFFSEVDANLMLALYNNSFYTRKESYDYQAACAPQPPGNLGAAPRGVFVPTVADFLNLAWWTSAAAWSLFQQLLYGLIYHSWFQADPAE
T1 sequence (Q9NY47 1002-1150 partner limits assumed): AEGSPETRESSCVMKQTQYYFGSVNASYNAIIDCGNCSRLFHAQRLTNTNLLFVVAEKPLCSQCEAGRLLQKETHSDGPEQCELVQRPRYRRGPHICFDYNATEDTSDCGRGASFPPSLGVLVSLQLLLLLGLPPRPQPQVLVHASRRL
T1 sequence (Q08289 whole entry partner): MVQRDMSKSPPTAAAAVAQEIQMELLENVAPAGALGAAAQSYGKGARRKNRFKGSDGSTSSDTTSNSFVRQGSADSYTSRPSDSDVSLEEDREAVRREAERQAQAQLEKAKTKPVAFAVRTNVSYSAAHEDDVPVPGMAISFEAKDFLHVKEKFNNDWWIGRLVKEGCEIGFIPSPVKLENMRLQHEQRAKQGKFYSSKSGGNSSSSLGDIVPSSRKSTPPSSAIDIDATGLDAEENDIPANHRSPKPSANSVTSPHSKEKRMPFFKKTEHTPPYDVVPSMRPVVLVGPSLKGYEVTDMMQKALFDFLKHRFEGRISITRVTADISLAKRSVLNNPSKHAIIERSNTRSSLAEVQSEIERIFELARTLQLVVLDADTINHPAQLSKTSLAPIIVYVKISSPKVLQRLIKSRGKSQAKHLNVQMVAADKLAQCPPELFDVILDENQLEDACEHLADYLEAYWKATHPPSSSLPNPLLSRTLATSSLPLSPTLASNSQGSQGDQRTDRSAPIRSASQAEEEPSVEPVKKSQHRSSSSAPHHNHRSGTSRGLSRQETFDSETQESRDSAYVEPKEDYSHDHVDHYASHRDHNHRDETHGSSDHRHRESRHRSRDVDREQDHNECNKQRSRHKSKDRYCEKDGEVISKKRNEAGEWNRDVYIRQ
Assay: Sophion QPatch dose-response assay, whole-cell voltage clamp of barium currents in CaV1.2-HEK293(AUX) cells
Format: cell-based
Details: Table 9, n = 1 unless * n = 2; for EC50: 6-point dose response, 10 determinations per concentration; for Qpatch Emax: maximal fold change of peak inward current
Source text: The monoclonal CaV1.2-HEK293(AUX) cell line constitutively expresses human CaV1.2 alpha1C (α1C) subunit (CACNA1C) and has doxycycline-inducible expression of the alpha2delta (α2Δ2) auxiliary subunit (CACNA2D2) and beta2 (02) auxiliary subunit (CACNB2). To generate the cell line, expression vectors pcDNA5.0/FRT-TO-CACNA2D2-FCS-P2A-CACNB2 and pCMV6-entry-CACNA1C were established via gene synthesis and cloning. Here, pcDNA5.0/FRT-TO plasmid is from Invitrogen, pCMV6-entry is from Origene, FCS stands for Furin Cleavage Site, P2A is a peptide self-cleavage sequence derived from porcine teschovirus-1, and FRT is the Flippase recognition target site. Next, parental line Flp-In™ 293 T-Rex (Invitrogen) was transfected with pcDNA5.0/FRT-TO-CACNA2D2-FCS-P2A-CACNB2 and Flippase vector pOG44 (Invitrogen) to establish targeted integration of the CACNA2D2-FCS-P2A-CACNB2 expression cassette into the pre-engineered FRT site in Flp-In™ 293 T-Rex. This intermediate cell line was then transfected with pCMV6-entry-CACNA1C to establish stable CACNA1C expression. Clonal isolation was achieved under Neomycin selection.
Electrophysiological Characterization of CaV1.2 Activators Using CaV1.2-HEK293(AUX) Cell Line and QPatch
24 hours prior an electrophysiology experiment, doxycycline (1 μg/ml) was added to the growth medium (Table 6), and 25 μM of verapamil was co-applied to prevent calcium influx triggered cell death. Cell confluency should reach 70%-80% right before the experiment. To harvest cells (from a T175 cm^2 flask as an example), growth media were removed completely, and the cells were rinsed with 10 mL of D-PBS. D-PBS was aspirated, and 10 mL of Detachin (Genlantis) was added and the plate was placed in a 37° C. incubator for 10 minutes. Detached cells were placed into a 15 mL conical tube and spun at 1000 rpm for 2 minutes. Supernatant was removed, and cells were re-suspended in QPatch complete media (Table 7) to desired cell density of 1.5-3 million cells per QPatch run. Each experimental run uses 1.5 mL of cells.
The cells suspension was taken to the Sophion QPatch platform that uses whole-cell voltage clamp to measure barium currents conducted through CaV1.2 on single-hole QPlates. Extracellular and intracellular patch clamp solutions are described in Tables 7 and 8, respectively. A dose-response assay protocol was used to determine the maximal fold change of peak inward current (Emax) and potency (EC50) of each compound. The protocol had eight liquid periods. The first liquid period was to stabilize current amplitude, which was monitored using repetitive 200-ms voltage pulses stepping from −80 mV to 0 mV. The second liquid period was to determine baseline current amplitude in the presence of vehicle control, using a single 20-ms voltage pulse stepping from −80 mV to 0 mV. The third through eighth liquid periods were used to ascertain a 6-dose response to compound treatments, also using single 20-ms voltage pulses stepping from −80 mV to 0 mV. The EC50 was generated using the following equation Iconcentration=Ibase+(Ifull−Ibase)*c^n/(XC50^n+c^n), where c is the concentration and n is the Hill coefficient constant. Ifull is the maximal current achievable, and Ibase is 0. A channel biophysics assay protocol was used to determine channel gating properties including current-voltage relationship (IV curves), half-way channel activation voltage (V1/2), rate of channel inactivation (tau), and amplitude of tail current. Among these, V1/2 was derived from fitting equation G(V)=Gvmin+(Gvmax−Gvmin)/(1+exp(−(V−V½)/Vslope)), where G stands for conductance, Gvmin equals 0, Gvmax is the maximal conductance, and Vslope is a slope factor. G(V) was pre-calculated from equation G(V)=I(V)/(V−0.06), for each experimentally applied depolarization potential (V) and the corresponding current amplitude (I(V)), and 0.06 in the equation was the experimentally determined reversal potential in volts. The protocol had four liquid periods.

For `COC(=O)C1=C(CF)NC2=C(C(=O)OC2)[C@H]1c1cccc(F)c1[C@H]1CC1(F)F` (single isomer, unassigned) [Example 1, methyl (R)-4-(2-((R or S)-2,2-difluorocyclopropyl)-3-fluorophenyl)-2-(fluoromethyl)-5-oxo-1,4,5,7-tetrahydrofuro[3,4-b]pyridine-3-carboxylate], the EC50 was 24 nM and the “Qpatch Emax” value was 1.9.
In the case of `COC(=O)C1=C(CF)NC2=C(C(=O)OC2)[C@H]1c1cccc(F)c1C1CC1` (single isomer, unassigned) [Example 2], the EC50 is reported as 12 nM and the “Qpatch Emax” value is reported as 2.3.
With `COC(=O)C1=C(CF)NC2=C(C(=O)OC2)[C@H]1c1cc(F)cc(F)c1[C@H]1CC1(F)F` (single isomer, unassigned) [Example 3, Methyl (R)-4-(2-((R or S)-2,2-difluorocyclopropyl)-3,5-difluorophenyl)-2-(fluoromethyl)-5-oxo-1,4,5,7-tetrahydrofuro[3,4-b]pyridine-3-carboxylate] the EC50 was 50 nM and the “Qpatch Emax” value was 1.6.
In the case of `COC(=O)C1=C(CF)NC2=C(C(=O)OC2)[C@H]1c1cc(F)cc(F)c1[C@H]1CC1(F)F` (single isomer, unassigned) [Example 4, Methyl (R)-4-(2-((R or S)-2,2-difluorocyclopropyl)-3,5-difluorophenyl)-2-(fluoromethyl)-5-oxo-1,4,5,7-tetrahydrofuro[3,4-b]pyridine-3-carboxylate], the EC50 is reported as 20 nM and the “Qpatch Emax” value is reported as 1.9.
In the case of `COC(=O)C1=C(CF)NC2=C(C(=O)OC2)[C@H]1c1cc(F)cc(F)c1[C@H](C)F` (single isomer, unassigned) [Example 5, methyl (R)-4-(3,5-difluoro-2-((R or S)-1-fluoroethyl)phenyl)-2-(fluoromethyl)-5-oxo-1,4,5,7-tetrahydrofuro[3,4-b]pyridine-3-carboxylate], the EC50 is reported as 20 nM and the “Qpatch Emax” value is reported as 1.9.
With `COC(=O)C1=C(CF)NC2=C(C(=O)OC2)[C@H]1c1cccc(F)c1[C@H](F)CF` (single isomer, unassigned) [Example 6] the EC50 was 17 nM and the “Qpatch Emax” value was 1.4*.
`COC(=O)C1=C(CF)NC2=C(C(=O)CC2)[C@H]1c1cccc(F)c1[C@@H](F)CF` (single isomer, unassigned) [Example 7, methyl (R)-4-(2-((R or S)-1,2-difluoroethyl)-3-fluorophenyl)-2-(fluoromethyl)-5-oxo-4,5,6,7-tetrahydro-1H-cyclopenta[b]pyridine-3-carboxylate] was tested, and the EC50 was 30 nM and the “Qpatch Emax” value was 1.8.
`COC(=O)C1=C(CF)NC2=C(C(=O)OC2)[C@H]1c1cccc(F)c1[C@@H](C)F` (single isomer, unassigned) [Example 8] was tested, and the EC50 was 20 nM and the “Qpatch Emax” value was 2.0.
For `COC(=O)C1=C(CF)NC2=C(C(=O)OC2)[C@H]1c1ccccc1OC(F)F` (single isomer, unassigned) [Example 9], the EC50 was 100 nM and the “Qpatch Emax” value was 1.5.
For `COC(=O)C1=C(CF)NC2=C(C(=O)OC2)[C@H]1c1cc(F)cc(F)c1C(F)(F)F` (single isomer, unassigned) [Example 10], the EC50 was 40 nM and the “Qpatch Emax” value was 1.8.
For `COC(=O)C1=C(CF)NC2=C(C(=O)OC2)[C@H]1c1cccc(F)c1CC(F)F` (single isomer, unassigned) [Example 11], the EC50 was 70 nM and the “Qpatch Emax” value was 2.0.
`COC(=O)C1=C(CF)NC2=C(C(=O)OC2)[C@H]1c1cc(F)cc(F)c1C1CC1` (single isomer, unassigned) [Example 13] was tested, and the EC50 was 20 nM and the “Qpatch Emax” value was 1.6*.
For `COC(=O)C1=C(CF)NC2=C(C(=O)OC2)[C@H]1c1cccc(F)c1C(F)F` (single isomer, unassigned) [Example 15], the EC50 was 290 nM and the “Qpatch Emax” value was 1.3.
In the case of `COC(=O)C1=C(CF)NC2=C(C(=O)OC2)[C@H]1c1cc(F)cc(F)c1[C@H](F)CF` (single isomer, unassigned) [Example 16, methyl (R)-4-(2-((R or S)-1,2-difluoroethyl)-3,5-difluorophenyl)-2-(fluoromethyl)-5-oxo-1,4,5,7-tetrahydrofuro[3,4-b]pyridine-3-carboxylate], the EC50 is reported as 10 nM and the “Qpatch Emax” value is reported as 1.5.
In the case of `COC(=O)C1=C(CF)NC2=C(C(=O)OC2)[C@H]1c1cccc(F)c1C(F)(F)F` (single isomer, unassigned) [Example 17], the EC50 is reported as 120 nM and the “Qpatch Emax” value is reported as 1.2.
`COC(=O)C1=C(CF)NC2=C(C(=O)OC2)[C@H]1c1cc(F)cc(F)c1C(F)F` (single isomer, unassigned) [Example 18] was tested, and the EC50 was 210 nM and the “Qpatch Emax” value was 1.8.
For `COC(=O)C1=C(CF)NC2=C(C(=O)OC2)[C@H]1c1cc(F)ccc1C(F)(F)F` (single isomer, unassigned) [Example 23], the EC50 was 120 nM and the “Qpatch Emax” value was 3.5.
`COC(=O)C1=C(CF)NC2=C(C(=O)CC2)[C@H]1c1cccc(F)c1C1CC1` (single isomer, unassigned) [Example 28] was tested, and the EC50 was 60 nM and the “Qpatch Emax” value was 1.9.
